For the series the following is noted: Crystal; DTA.

Numbers after ± are expanded uncertainties.

Regarding `[F-].[Li+]` [lithium fluoride], the Normal melting temperature is 844 ± 1 °C.

For `[Cl-].[Cs+]` [cesium chloride], the Normal melting temperature turned out to be 645 ± 1 °C.

The values above are taken from the NIST ThermoML archive (doi:10.1016/j.jct.2019.07.003).
